Results from ChEMBL document CHEMBL2150984, “Synthesis of fluorescent ristocetin aglycon derivatives with remarkable antibacterial and antiviral activities” (Eur J Med Chem, 2012).
In brackets after ≈: the same amount, converted by molar mass.

Key:
H3N2 subtype = assay: Antiviral activity against Influenza A/HK/7/87 infected in MDCK cells assessed as inhibition of virus-induced cytopathic effect measured on day 3 post infection by MTS assay; assay type: functional, organism-based; conditions: A/Hong Kong/7/1987(H3N2), 72 h
[1] = Cytotoxicity against MDCK cells assessed as minimum concentration required to cause microscopically detectable alteration measured on day 3 post infection by MTS assay; assay type: cell-based, Canis lupus familiaris; conditions: dog
Influenza B virus = assay: Antiviral activity against Influenza B/HK/5/72 infected in MDCK cells assessed as inhibition of virus-induced cytopathic effect measured on day 3 post infection by MTS assay; assay type: functional, cell-based; conditions: B/Hong Kong/05/1972, MDCK, 72 h
Influenza A virus = assay: Antiviral activity against Influenza A/PR/8/34 infected in MDCK cells assessed as inhibition of virus-induced cytopathic effect measured on day 3 post infection by MTS assay; assay type: functional, organism-based; conditions: A/Puerto Rico/8/1934(H1N1), 72 h
Staphylococcus aureus [2] = assay: Antibacterial activity against methicillin-sensitive Staphylococcus aureus ATCC 29213 by broth microdilution method; assay type: functional
[3] = tested on: Staphylococcus epidermidis; assay: Antibacterial activity against Staphylococcus epidermidis expressing mecA gene by broth microdilution method; assay type: functional
Bacillus subtilis = assay: Antibacterial activity against Bacillus subtilis ATCC 6633 by broth microdilution method; assay type: functional
Enterococcus faecalis [4] = assay: Antibacterial activity against Enterococcus faecalis ATCC 15376 expressing vanA gene by broth microdilution method; assay type: functional
Staphylococcus aureus [5] = assay: Antibacterial activity against methicillin-resistant Staphylococcus aureus ATCC 33591 by broth microdilution method; assay type: functional
Enterococcus faecalis [6] = assay: Antibacterial activity against Enterococcus faecalis ATCC 51299 expressing vanB gene by broth microdilution method; assay type: functional
[7] = tested on: Staphylococcus epidermidis; assay: Antibacterial activity against biofilm forming Staphylococcus epidermidis ATCC 35984 by broth microdilution method; assay type: functional
Enterococcus faecalis [8] = assay: Antibacterial activity against Enterococcus faecalis ATCC 29212 by broth microdilution method; assay type: functional

Row | Structure (SMILES) | EC50 (H3N2 subtype) [nM] | MCC at 3 days [1] [µM] | EC50 (Influenza B virus) [nM] | EC50 (Influenza A virus) [nM] | MIC (Staphylococcus aureus [2]) [µg/mL] | MIC [3] [µg/mL] | MIC (Bacillus subtilis) [µg/mL] | MIC (Enterococcus faecalis [4]) [µg/mL] | MIC (Staphylococcus aureus [5]) [µg/mL] | MIC (Enterococcus faecalis [6]) [µg/mL] | MIC [7] [µg/mL] | MIC (Enterococcus faecalis [8]) [µg/mL]
1 | NC12CC3CC(CC(C3)C1)C2 [AMANTADINE] | 2300 | > 500 | > 500000 | 7600 |  |  |  |  |  |  |  | 
2 | COC(=O)[C@H]1NC(=O)[C@H]2NC(=O)[C@H](NC(=O)[C@@H]3NC(=O)[C@H]4NC(=O)[C@H](NC(=O)[C@H](n5cc6ccccc6c5S[C@@H]5O[C@H](CO)[C@@H](O)[C@H](O)[C@H]5O)c5ccc(O)c(c5)Oc5cc4cc(O)c5C)[C@H](O)c4ccc(cc4)Oc4cc3cc(c4O)Oc3ccc(cc3)[C@H]2O)c2ccc(O)c(c2)-c2c(O)cc(O)cc21 | 2300 | 20 | > 100000 | 270 | 1 (≈ 0.681 µM) | 1 (≈ 0.681 µM) | 2 (≈ 1.36 µM) | 1 (≈ 0.681 µM) | 1 (≈ 0.681 µM) | 2 (≈ 1.36 µM) | 4 (≈ 2.72 µM) | 1 (≈ 0.681 µM)
3 | COC(=O)[C@H]1NC(=O)[C@H]2NC(=O)[C@H](NC(=O)[C@@H]3NC(=O)[C@H]4NC(=O)[C@H](NC(=O)[C@H](n5cc6ccccc6c5Sc5ccccc5)c5ccc(O)c(c5)Oc5cc4cc(O)c5C)[C@H](O)c4ccc(cc4)Oc4cc3cc(c4O)Oc3ccc(cc3)[C@H]2O)c2ccc(O)c(c2)-c2c(O)cc(O)cc21 | 680 | 6.4 | 1400 | 670 | 1 (≈ 0.723 µM) | 1 (≈ 0.723 µM) | 2 (≈ 1.45 µM) | 4 (≈ 2.89 µM) | 1 (≈ 0.723 µM) | 1 (≈ 0.723 µM) | 0.5 (≈ 0.362 µM) | 2 (≈ 1.45 µM)
4 | COC(=O)[C@H]1NC(=O)[C@H]2NC(=O)[C@H](NC(=O)[C@@H]3NC(=O)[C@H]4NC(=O)[C@H](NC(=O)[C@H](n5cc6ccccc6c5Sc5ncccn5)c5ccc(O)c(c5)Oc5cc4cc(O)c5C)[C@H](O)c4ccc(cc4)Oc4cc3cc(c4O)Oc3ccc(cc3)[C@H]2O)c2ccc(O)c(c2)-c2c(O)cc(O)cc21 | 1800 | 20 | > 100000 | 300 | 1 (≈ 0.722 µM) | 0.5 (≈ 0.361 µM) | 0.5 (≈ 0.361 µM) | 0.5 (≈ 0.361 µM) | 1 (≈ 0.722 µM) | 0.5 (≈ 0.361 µM) | 2 (≈ 1.44 µM) | 0.5 (≈ 0.361 µM)
5 | Cc1c(O)cc2cc1Oc1cc(ccc1O)[C@@H](N)C(=O)N[C@H]1C(=O)N[C@@H]2C(=O)N[C@H]2C(=O)N[C@H]3C(=O)N[C@H](C(=O)N[C@@H](C(=O)O)c4cc(O)cc(O[C@H]5O[C@H](CO)[C@@H](O)[C@H](O)[C@@H]5O)c4-c4cc3ccc4O)[C@H](O[C@H]3C[C@@H](N)[C@@H](O)[C@H](C)O3)c3ccc(cc3)Oc3cc2cc(c3O[C@H]2O[C@@H](CO[C@H]3O[C@H](C)[C@@H](O)[C@H](O)[C@@H]3O)[C@H](O)[C@@H](O)[C@@H]2O[C@H]2O[C@H](CO)[C@@H](O)[C@H](O)[C@@H]2O[C@H]2O[C@H](CO)[C@@H](O)[C@@H]2O)Oc2ccc(cc2)[C@H]1O [RISTOCETIN] |  |  |  |  | 128 (≈ 62.3 µM) | 128 (≈ 62.3 µM) | 16 (≈ 7.79 µM) | 16 (≈ 7.79 µM) | 32 (≈ 15.6 µM) | 256 (≈ 125 µM) | 2 (≈ 0.974 µM) | 4 (≈ 1.95 µM)
6 | COC(=O)[C@H]1NC(=O)[C@H]2NC(=O)[C@H](NC(=O)[C@@H]3NC(=O)[C@H]4NC(=O)[C@H](NC(=O)[C@H](n5cc6cc7ccccc7cc6c5Sc5ccccc5)c5ccc(O)c(c5)Oc5cc4cc(O)c5C)[C@H](O)c4ccc(cc4)Oc4cc3cc(c4O)Oc3ccc(cc3)[C@H]2O)c2ccc(O)c(c2)-c2c(O)cc(O)cc21 | > 100000 | 20 | > 100000 | > 100000 | 0.5 (≈ 0.349 µM) | 1 (≈ 0.698 µM) | 0.5 (≈ 0.349 µM) | 0.5 (≈ 0.349 µM) | 0.5 (≈ 0.349 µM) | 0.5 (≈ 0.349 µM) | 1 (≈ 0.698 µM) | 0.5 (≈ 0.349 µM)
7 | CC(=O)N[C@H]1[C@H]([C@H](O)[C@H](O)CO)OC(C(=O)O)=C[C@@H]1NC(=N)N [ZANAMIVIR] | 1800 | > 100 | 34000 | 300 |  |  |  |  |  |  |  | 
8 | COC(=O)[C@H]1NC(=O)[C@H]2NC(=O)[C@H](NC(=O)[C@@H]3NC(=O)[C@H]4NC(=O)[C@H](NC(=O)[C@H](n5cc6ccccc6c5S[C@@H]5O[C@H](COC(C)=O)[C@@H](OC(C)=O)[C@H](OC(C)=O)[C@H]5OC(C)=O)c5ccc(O)c(c5)Oc5cc4cc(O)c5C)[C@H](O)c4ccc(cc4)Oc4cc3cc(c4O)Oc3ccc(cc3)[C@H]2O)c2ccc(O)c(c2)-c2c(O)cc(O)cc21 | 72 | ≥ 4 | > 100000 | 160 | 2 (≈ 1.22 µM) | 4 (≈ 2.44 µM) | 8 (≈ 4.89 µM) | 8 (≈ 4.89 µM) | 1 (≈ 0.611 µM) | 8 (≈ 4.89 µM) | 1 (≈ 0.611 µM) | 2 (≈ 1.22 µM)
9 | NC(=O)c1ncn([C@@H]2O[C@H](CO)[C@@H](O)[C@H]2O)n1 [RIBAVIRIN] | 8900 | ≥ 20 |  | 6800 |  |  |  |  |  |  |  | 
10 | COC(=O)[C@H]1NC(=O)[C@H]2NC(=O)[C@H](NC(=O)[C@@H]3NC(=O)[C@H]4NC(=O)[C@H](NC(=O)[C@H](N)c5ccc(O)c(c5)Oc5cc4cc(O)c5C)[C@H](O)c4ccc(cc4)Oc4cc3cc(c4O)Oc3ccc(cc3)[C@H]2O)c2ccc(O)c(c2)-c2c(O)cc(O)cc21 [AGLYCORISTOCETIN] | 6800 | > 100 | > 100000 | 2300 |  |  |  |  |  |  |  | 
11 | COC(=O)[C@H]1NC(=O)[C@H]2NC(=O)[C@H](NC(=O)[C@@H]3NC(=O)[C@H]4NC(=O)[C@H](NC(=O)[C@H](n5cc6ccccc6c5S[C@@H]5O[C@H](COC(C)=O)[C@@H](OC(C)=O)[C@H](OC(C)=O)[C@H]5NC(C)=O)c5ccc(O)c(c5)Oc5cc4cc(O)c5C)[C@H](O)c4ccc(cc4)Oc4cc3cc(c4O)Oc3ccc(cc3)[C@H]2O)c2ccc(O)c(c2)-c2c(O)cc(O)cc21 | 1800 | 20 | > 100000 | 1800 | 4 (≈ 2.45 µM) | 4 (≈ 2.45 µM) | 8 (≈ 4.89 µM) | 4 (≈ 2.45 µM) | 4 (≈ 2.45 µM) | 4 (≈ 2.45 µM) | 4 (≈ 2.45 µM) | 4 (≈ 2.45 µM)
12 | COC(=O)[C@H]1NC(=O)[C@H]2NC(=O)[C@H](NC(=O)[C@@H]3NC(=O)[C@H]4NC(=O)[C@H](NC(=O)[C@H](n5cc6ccccc6c5Sc5nc6ccccc6s5)c5ccc(O)c(c5)Oc5cc4cc(O)c5C)[C@H](O)c4ccc(cc4)Oc4cc3cc(c4O)Oc3ccc(cc3)[C@H]2O)c2ccc(O)c(c2)-c2c(O)cc(O)cc21 | 4000 | 20 | 8900 | 1400 | 1 (≈ 0.695 µM) | 1 (≈ 0.695 µM) | 2 (≈ 1.39 µM) | 1 (≈ 0.695 µM) | 0.5 (≈ 0.347 µM) | 2 (≈ 1.39 µM) | 2 (≈ 1.39 µM) | 0.5 (≈ 0.347 µM)
13 | COC(=O)[C@H]1NC(=O)[C@H]2NC(=O)[C@H](NC(=O)[C@@H]3NC(=O)[C@H]4NC(=O)[C@H](NC(=O)[C@H](n5cc6cc7ccccc7cc6c5Sc5ncccn5)c5ccc(O)c(c5)Oc5cc4cc(O)c5C)[C@H](O)c4ccc(cc4)Oc4cc3cc(c4O)Oc3ccc(cc3)[C@H]2O)c2ccc(O)c(c2)-c2c(O)cc(O)cc21 | 360 | ≥ 0.8 | > 100000 | 80 | 2 (≈ 1.39 µM) | 2 (≈ 1.39 µM) | 2 (≈ 1.39 µM) | 2 (≈ 1.39 µM) | 2 (≈ 1.39 µM) | 2 (≈ 1.39 µM) | 4 (≈ 2.79 µM) | 2 (≈ 1.39 µM)
14 | CN[C@H](CC(C)C)C(=O)N[C@H]1C(=O)N[C@@H](CC(N)=O)C(=O)N[C@H]2C(=O)N[C@H]3C(=O)N[C@H](C(=O)N[C@H](C(=O)O)c4cc(O)cc(O)c4-c4cc3ccc4O)[C@H](O)c3ccc(c(Cl)c3)Oc3cc2cc(c3O[C@@H]2O[C@H](CO)[C@@H](O)[C@H](O)[C@H]2O[C@H]2C[C@](C)(N)[C@H](O)[C@H](C)O2)Oc2ccc(cc2Cl)[C@H]1O [VANCOMYCIN] |  |  |  |  |  |  | 0.5 (≈ 0.345 µM) | 256 (≈ 177 µM) |  | 128 (≈ 88.3 µM) |  | 1 (≈ 0.69 µM)
